According to patent US10072011B2, “Substituted bridged urea analogs as sirtuin modulators” (GlaxoSmithKline Intellectual Property (No.2) Limited, priority 2014, dated 2018):

Target: T1, SIRT1 (Homo sapiens, UniProt Q96EB6)
T1 sequence (Q96EB6 1-747): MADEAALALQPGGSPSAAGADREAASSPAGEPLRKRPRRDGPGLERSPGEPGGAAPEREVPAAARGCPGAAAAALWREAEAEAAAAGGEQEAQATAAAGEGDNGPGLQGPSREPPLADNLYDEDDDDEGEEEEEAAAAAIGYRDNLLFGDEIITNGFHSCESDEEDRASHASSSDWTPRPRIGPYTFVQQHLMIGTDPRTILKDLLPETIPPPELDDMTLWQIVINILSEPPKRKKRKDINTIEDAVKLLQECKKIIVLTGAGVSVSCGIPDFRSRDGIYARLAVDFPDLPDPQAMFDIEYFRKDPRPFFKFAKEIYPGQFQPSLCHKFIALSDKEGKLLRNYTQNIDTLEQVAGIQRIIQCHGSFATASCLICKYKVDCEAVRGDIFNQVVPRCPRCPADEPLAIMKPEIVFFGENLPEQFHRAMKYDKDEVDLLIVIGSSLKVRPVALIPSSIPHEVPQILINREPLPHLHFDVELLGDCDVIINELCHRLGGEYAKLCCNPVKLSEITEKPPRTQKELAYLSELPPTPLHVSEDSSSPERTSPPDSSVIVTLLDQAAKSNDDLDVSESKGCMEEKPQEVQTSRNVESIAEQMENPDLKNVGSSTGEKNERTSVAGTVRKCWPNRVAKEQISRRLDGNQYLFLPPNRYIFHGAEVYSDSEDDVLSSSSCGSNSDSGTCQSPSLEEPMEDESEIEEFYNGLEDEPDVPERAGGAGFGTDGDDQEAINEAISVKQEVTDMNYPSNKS
Test: Trp mass spectrometry assay of SIRT1 activation (Ac-R-H-K-K(Ac)-W-NH2 peptide)
Format: biochemical
Details: Trp peptide 0.5 μM, 120 μM βNAD+, 10 nM SIRT1, 25 min at 25° C.; for Emax: 25 min, relative to control (100%), read-out: TRP MAX RESP (percent maximum fold activation)
Outline: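 N-terminal His-tagged human SIRT1, expressed in BL21(DE3) and purified, was incubated 25 min with an acetylated Trp peptide and NAD plus test compound at varying concentrations, then quenched with formic acid. OAADPR or deacetylated peptide was quantified by mass spectrometry versus compound-free control; EC1.5 is the concentration giving 50% activity increase, with percent maximum activation.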

In the case of `C[C@@H](NC(=O)c1ccc2c(n1)N(C(=O)Nc1ccc(OC[C@@H](O)CO)cn1)[C@H]1CCN2C1)C(F)(F)F` [Example 153, (4S)—N5-(5-((S)-2,3-dihydroxypropoxy)pyridin-2-yl)-N7-((R)-1,1,1-trifluoropropan-2-yl)-3,4-dihydro-1,4-methanopyrido[2,3-b][1,4]diazepine-5,7(2H)-dicarboxamide], the Emax is reported as over 150% and the “TRP Activity (EC1.5, concentration of test compound that results in 150% activation of SIRT1)” value is reported as “A (EC1.5<1 μM)”.

In the case of `C[C@@H](NC(=O)c1ccc2c(n1)N(C(=O)Nc1nccc(OC[C@@H](O)CO)n1)[C@H]1CCN2C1)C(F)(F)F` [Example 154, (4S)—N5-(4-((S)-2,3-dihydroxypropoxy)pyrimidin-2-yl)-N7-((R)-1,1,1-trifluoropropan-2-yl)-3,4-dihydro-1,4-methanopyrido[2,3-b][1,4]diazepine-5,7(2H)-dicarboxamide], the Emax is reported as over 150% and the “TRP Activity (EC1.5, concentration of test compound that results in 150% activation of SIRT1)” value is reported as “A (EC1.5<1 μM)”.

With `C[C@@H](NC(=O)c1ccc2c(n1)N(C(=O)Nc1cncc(OC[C@H](O)CO)n1)[C@H]1CCN2C1)C(F)(F)F` [Example 155, (4S)—N5-(6-((R)-2,3-dihydroxypropoxy)pyrazin-2-yl)-N7-((R)-1,1,1-trifluoropropan-2-yl)-3,4-dihydro-1,4-methanopyrido[2,3-b][1,4]diazepine-5,7(2H)-dicarboxamide] the Emax was over 150% and the “TRP Activity (EC1.5, concentration of test compound that results in 150% activation of SIRT1)” value was “A (EC1.5<1 μM)”.

With `Cc1ncc(-c2ccnc(NC(=O)N3c4nc(C(=O)N[C@H](C)C(F)(F)F)ccc4N4CC[C@H]3C4)n2)o1` [Example 156, (4S)—N5-(4-(2-methyloxazol-5-yl)pyrimidin-2-yl)-N7-((R)-1,1,1-trifluoropropan-2-yl)-3,4-dihydro-1,4-methanopyrido[2,3-b][1,4]diazepine-5,7(2H)-dicarboxamide] the Emax was over 150% and the “TRP Activity (EC1.5, concentration of test compound that results in 150% activation of SIRT1)” value was “A (EC1.5<1 μM)”.

With `Cc1ncc(-c2ccnc(NC(=O)N3c4nc(C(=O)NCC(F)(F)F)ccc4N4CC[C@H]3C4)n2)o1` [Example 157, (4S)—N5-(4-(2-methyloxazol-5-yl)pyrimidin-2-yl)-N7-(2,2,2-trifluoroethyl)-3,4-dihydro-1,4-methanopyrido[2,3-b][1,4]diazepine-5,7(2H)-dicarboxamide] the Emax was over 150% and the “TRP Activity (EC1.5, concentration of test compound that results in 150% activation of SIRT1)” value was “A (EC1.5<1 μM)”.

`N#Cc1ccc(NC(=O)N2c3nc(C(=O)NCC(F)(F)F)ccc3N3CC[C@H]2C3)nc1` [Example 158, (4S)—N5-(5-cyanopyridin-2-yl)-N7-(2,2,2-trifluoroethyl)-3,4-dihydro-1,4-methanopyrido[2,3-b][1,4]diazepine-5,7(2H)-dicarboxamide] was tested, and the Emax was over 150% and the “TRP Activity (EC1.5, concentration of test compound that results in 150% activation of SIRT1)” value was “A (EC1.5<1 μM)”.

With `O=C(N[C@H](CO)C(F)(F)F)c1ccc2c(n1)N(C(=O)Nc1cc3c(cn1)OCCC3)[C@H]1CCN2C1` [Example 159] the Emax was over 150% and the “TRP Activity (EC1.5, concentration of test compound that results in 150% activation of SIRT1)” value was “A (EC1.5<1 μM)”.

For `O=C(NC1CC1)c1ccc2c(n1)N(C(=O)Nc1cc3c(cn1)OCCC3)[C@H]1CCN2C1` [Example 160, (4S)—N7-cyclopropyl-N5-(3,4-dihydro-2H-pyrano[2,3-c]pyridin-6-yl)-3,4-dihydro-1,4-methanopyrido[2,3-b][1,4]diazepine-5,7(2H)-dicarboxamide], the Emax was over 150% and the “TRP Activity (EC1.5, concentration of test compound that results in 150% activation of SIRT1)” value was “A (EC1.5<1 μM)”.

`O=C(NCC(F)(F)F)c1ccc2c(n1)N(C(=O)Nc1cc(OCCO)ccn1)[C@H]1CCN2C1` [Example 161, (4S)—N5-(4-(2-hydroxyethoxy)pyridin-2-yl)-N7-(2,2,2-trifluoroethyl)-3,4-dihydro-1,4-methanopyrido[2,3-b][1,4]diazepine-5,7(2H)-dicarboxamide] was tested, and the Emax was over 150% and the “TRP Activity (EC1.5, concentration of test compound that results in 150% activation of SIRT1)” value was “A (EC1.5<1 μM)”.
